Experimental findings from ChEMBL document CHEMBL3507680, “University of Dundee, Gates Library screen for HepG2 cell viability” are described below.

SMILES strings stand for the structures.

This data set is described as follows: Human HepG2 cell viability assay in 384 well format. The class given is toxicity, cell-based. Conditions: HepG2 cells, read-out: Inhibition. More on the design: dose 125 nL, time 70.5 hour; cytotoxicity at 70.5 h: concentration not given beside the values.
As for `CN(C)[C@@H]1CO[C@H](CNC(=O)c2cccs2)[C@H]1O`, the cytotoxicity at 70.5 h was -8.01%.

Consider `Cc1cn2nc(N3CCCN(Cc4noc(C)n4)CC3)sc2n1`, for which the cytotoxicity at 70.5 h was -4.93%.

In the case of `Nc1nnc(SCc2cc(=O)n3c4c(sc3n2)CCCC4)[nH]1`, the cytotoxicity at 70.5 h is -3.97%.

Regarding `CCN(C)c1ncnc2c1CCN(c1ccc(C)nn1)CC2`, the cytotoxicity at 70.5 h is -2.59%.

With `Cc1noc(C)c1CN1C(=O)[C@H]2CC[C@@H]1CN(Cc1ccc(Cl)cc1)C2`, the cytotoxicity at 70.5 h was found to be 8.52%.

On to `Cc1csc(N2CCN(CCCN3CCCC3=O)CC2)n1`, for which the cytotoxicity at 70.5 h was -0.2%.

For `Cc1cc(C)n(C2CCCN(C(=O)c3cccc4c3OCO4)C2)n1` (centres undefined), the cytotoxicity at 70.5 h was -10.8%.

`CCNC(=O)C1CCCN(Cn2nc(C(C)(C)C)ccc2=O)C1` (centres undefined): the cytotoxicity at 70.5 h was 21.4%.

Take `CCC/C=C/c1ccc(CN2CCCC2)cn1`: the cytotoxicity at 70.5 h turned out to be 48.4%.

With `CCOc1ccccc1-c1noc(CN2CCN(CCOC)CC2)n1`, the cytotoxicity at 70.5 h is -6.13%.

As for `CC(=O)Nc1ccc(Cl)c(C(=O)N(C)C(C)c2ccncn2)c1` (centres undefined), the cytotoxicity at 70.5 h was -0.237%.

For the compound `Cc1ccc(CN2CCC3(CCC3NC(=O)c3ccn(C)c3)CC2)s1` (centres undefined), the cytotoxicity at 70.5 h was found to be 0.0423%.

For `Cc1cnn(CCNCc2nc(CNC(=O)c3ccccc3)no2)c1`, the cytotoxicity at 70.5 h was 22.6%.

As for `CCOCCN1CCC(c2cnccn2)CC1`, the cytotoxicity at 70.5 h was 21.8%.

Turning to `Cn1cccc1C(=O)N[C@@H]1CN(Cc2ccsc2)[C@@H]2COC[C@@H]21`, the cytotoxicity at 70.5 h was -10.2%.

For the compound `CC(C(=O)N1CCN(C)CC1)n1cc(Br)cn1` (centres undefined), the cytotoxicity at 70.5 h is -1.37%.

Consider `NC(=O)NCC(=O)N1C[C@H]2CC[C@@H]1CN(Cc1ccccc1)C2`, for which the cytotoxicity at 70.5 h was 1.42%.

For the compound `O=C(NCc1nncn1-c1ccccc1)C1CC(=O)N(CC2CC2)C1` (centres undefined), the cytotoxicity at 70.5 h was -18.1%.

Regarding `COc1cc(F)c(NC(=O)N(C)CCNC(=O)N(C)C)cc1F`, the cytotoxicity at 70.5 h is -0.221%.

Turning to `Cc1nc(C)n(C2CCCN(C(=O)c3ccc(OC(C)C)nc3)C2)n1` (centres undefined), the cytotoxicity at 70.5 h was -0.207%.

`CC(C)n1cnc2c1C(C(=O)NCCC#N)N(Cc1ccccc1)CC2` (centres undefined): the cytotoxicity at 70.5 h is -16.7%.

Regarding `CC(NC(=O)N(C)CCCOc1ccccc1)c1nncn1C` (centres undefined), the cytotoxicity at 70.5 h is -5.85%.

Turning to `Cc1nn(CC(O)CN2CCC(C)CC2)c(=O)c(C#N)c1C` (centres undefined), the cytotoxicity at 70.5 h was -17%.

With `O=C1[C@H]2CC[C@H](CN(C3CSCCSC3)C2)N1Cc1cscn1`, the cytotoxicity at 70.5 h was -7.49%.

`Cc1nn(C)cc1CN(C)Cc1cc2c(cc1OC(F)F)OCO2`: the cytotoxicity at 70.5 h is -7.7%.

On to `CCOc1ccc(Cl)c(C(=O)NCc2ccc(C(=O)NC)cc2)n1`, for which the cytotoxicity at 70.5 h was 4.62%.

As for `Cc1ccccc1C(NC(=O)Cn1cc(C2CC2)nn1)C1CC1` (centres undefined), the cytotoxicity at 70.5 h was -3.63%.

Consider `Cc1cnc(C(=O)NCc2ccnc(N(C)C)c2)cn1`, for which the cytotoxicity at 70.5 h was -2.67%.

On to `O=C(NCC(O)c1cccs1)c1ccco1` (centres undefined), for which the cytotoxicity at 70.5 h was -10.6%.

For `Cc1cc(C)c2nc(CN3CCC(N4CCOCC4)CC3)cc(O)c2c1`, the cytotoxicity at 70.5 h is -0.693%.

Regarding `CC(C)c1nc(CS(=O)(=O)Cc2noc(C3CC3)n2)cs1`, the cytotoxicity at 70.5 h is -13.6%.

`CNC(=O)c1cc2c(nc1NCC1CC1)CCNCC2`: the cytotoxicity at 70.5 h came out at 4.29%.

`Cc1ccc(S(=O)(=O)N(C)CC(N)=O)c(Cl)c1`: the cytotoxicity at 70.5 h is -10.6%.

For `COc1c(CNC2(c3noc(C)n3)CCC2)c(C)nn1C`, the cytotoxicity at 70.5 h is -7.32%.

`CN(C)CCN1C[C@@H]2CN(S(=O)(=O)c3cccs3)C[C@@H]2C1=O`: the cytotoxicity at 70.5 h was -10.9%.

`COc1cc(CNC(=O)Nc2cc(C(F)(F)F)c[nH]c2=O)ccn1`: the cytotoxicity at 70.5 h was 1.69%.

On to `O=C(c1cccc2[nH]ccc12)N1CCC2(CCOC2)C1` (centres undefined), for which the cytotoxicity at 70.5 h came out at 2.34%.

Consider `Cc1c(CN2CCCCC2)c(O)n(CCO)c(=O)c1C#N`, for which the cytotoxicity at 70.5 h is -2.11%.

Take `C[C@@H]1C[C@@H]2CCN(Cc3ccccn3)C[C@H]2O1`: the cytotoxicity at 70.5 h was -5.42%.
